Test results: patent US20130217664A1, “NOVEL COMPOUNDS USEFUL FOR THE TREATMENT OF DEGENERATIVE AND INFLAMMATORY DISEASES” (priority 2012, published 2013)

Target: T1, human JAK1 (Homo sapiens, UniProt P23458)
T1 construct: catalytic domain, amino acids 866-1154; catalog number PV4774; purchased Invitrogen PV4774
Experiment: JAK1 inhibition assay (polyGT substrate / Ulight-JAK1 peptide)
Assay type: biochemical
Details: recombinant human JAK1 catalytic domain; polyGT or Ulight-JAK1 peptide assay
Description: 1.1 JAK1 Inhibition Assay
1.1.1 JAK1 Assay polyGT Substrate
After 45 min at 30° C., reactions are stopped by adding of 25 μL/well of 150 mM phosphoric acid. […] Plates are washed 6 times with 300 μL per well of a 75 mM phosphoric acid solution and the bottom of the plates is sealed. 40 μL/well of Microscint-20 is added, the top of the plates is sealed and readout is performed using the Topcount (Perkin Elmer). Kinase activity is calculated by subtracting counts per min (cpm) obtained in the presence of a positive control inhibitor (10 μM staurosporine) from cpm obtained in the presence of vehicle. The ability of a test compound to inhibit this activity is determined as:
Percentage inhibition=((cpm determined for sample with test compound present−cpm determined for sample with positive control inhibitor)divided by(cpm determined in the presence of vehicle−cpm determined for sample with positive control inhibitor))*100.
Dose dilution series are prepared for the compounds enabling the testing of dose-response effects in the JAK1 assay and the calculation of the IC50 for each compound.
1.1.2 JAK1 Ulight-JAK1 Peptide Assay
After 60 min at room temperature, reactions were stopped by adding 20 μL/well of detection mixture (1× detection buffer (Perkin Elmer, catalog number CR97-100C), 0.5 nM Europium-anti-phosphotyrosine (PT66) (Perkin Elmer, catalog number AD0068), 10 mM EDTA). […] Kinase activity was calculated by subtracting relative fluorescence units (RFU) obtained in the presence of a positive control inhibitor (10 μM staurosporine) from RFU obtained in the presence of vehicle. The ability of a test compound to inhibit this activity was determined as:
Percentage inhibition=((RFU determined for sample with test compound present−RFU determined for sample with positive control inhibitor)divided by(RFU determined in the presence of vehicle−RFU determined for sample with positive control inhibitor))*100.
Dose dilution series were prepared for the compounds enabling the testing of dose-response effects in the JAK1 assay and the calculation of the IC50 for the compound. Each compound is routinely tested at concentration of 20 μM followed by a 1/5 serial dilution, 10 points in a final concentration of 1% DMSO. […] The data are expressed as the average IC50 from the assays±standard error of the mean.

T1 sequence (P23458 866-1154): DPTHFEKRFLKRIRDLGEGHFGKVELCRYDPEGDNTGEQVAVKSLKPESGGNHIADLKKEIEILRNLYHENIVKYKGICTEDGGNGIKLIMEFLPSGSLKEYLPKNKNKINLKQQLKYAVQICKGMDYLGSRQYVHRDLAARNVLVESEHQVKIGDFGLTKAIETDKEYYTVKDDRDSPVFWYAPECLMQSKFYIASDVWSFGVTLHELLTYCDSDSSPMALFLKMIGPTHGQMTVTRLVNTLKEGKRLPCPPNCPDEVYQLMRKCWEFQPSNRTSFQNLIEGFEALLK

With CCc1cc(-c2c(C)nn(C)c2C)ccc1N(C)c1cc2c(cn1)ncn2C [Compound 138, N-(2-ethyl-4-(1,3,5-trimethyl-1H-pyrazol-4-yl)phenyl)-N,1-dimethyl-1H-imidazo[4,5-c]pyridin-6-amine] the IC50 was 101 to 500 nM.
With CCc1cc(C(=O)NC2CNC2)ccc1N(C)c1cc2c(cn1)ncn2C [Compound 174, N-(azetidin-3-yl)-3-ethyl-4-(methyl(1-methyl-1H-imidazo[4,5-c]pyridin-6-yl)amino)benzamide] the IC50 was 101 to 500 nM.
With CCNC(=O)NCc1ccc(N(C)c2cc3c(cn2)ncn3C)c(CC)c1 [Compound 192, 1-Ethyl-3-(3-ethyl-4-(methyl(1-methyl-1H-imidazo[4,5-c]pyridin-6-yl)amino)benzyl)urea] the IC50 was 0.01 to 100 nM.
CN(c1cc2c(cn1)ncn2C)c1ccc(C2CCN(C(=O)OC(C)(C)C)CC2)cc1OC(F)F [Compound 286, 4-{3-Difluoromethoxy-4-[methyl-(1-methyl-1H-imidazo[4,5-c]pyridin-6-yl)-amino]-phenyl}-piperidine-1-carboxylic acid tert-butyl ester] showed an IC50 of 101 to 500 nM.
With CN(c1cc2c(cn1)ncn2C)c1ccc(C2=CCN(C(=O)OC(C)(C)C)CC2)cc1OC(F)F [Compound 281, 4-{3-Difluoromethoxy-4-[methyl-(1-methyl-1H-imidazo[4,5-c]pyridin-6-yl)-amino]-phenyl}-3,6-dihydro-2H-pyridine-1-carboxylic acid tert-butyl ester] the IC50 was 101 to 500 nM.
In the case of CC(NC(=O)OC(C)(C)C)c1ccc(N(C)c2cc3c(cn2)ncn3C)c(F)c1 (stereo not drawn) [Compound 268, tert-Butyl (1-(3-fluoro-4-(methyl(1-methyl-1H-imidazo[4,5-c]pyridin-6-yl)amino)phenyl)ethyl)carbamate], the IC50 is reported as > 1000 nM.
CCc1cc(-c2n[nH]c(C3CC3)n2)ccc1N(C)c1cc2c(cn1)ncn2C [Compound 188, N-(4-(5-cyclopropyl-1H-1,2,4-triazol-3-yl)-2-ethylphenyl)-N,1-dimethyl-1H-imidazo[4,5-c]pyridin-6-amine] was tested, and the IC50 was 101 to 500 nM.
Cn1cnc2cnc(N(CC3CC3)c3ccc(C#N)cc3F)cc21 [Compound 282, 4-[Cyclopropylmethyl-(1-methyl-1H-imidazo[4,5-c]pyridin-6-yl)-amino]-3-fluoro-benzonitrile] was tested, and the IC50 was > 1000 nM.
CC(=O)N1CC(c2ccc(N(C)c3cc4c(cn3)ncn4C)c(F)c2)C1 [Compound 278, 1-(3-{3-Fluoro-4-[methyl-(1-methyl-M-imidazo[4,5-c]pyridin-6-yl)-amino]-phenyl}-azetidin-1-yl)-ethanone] was tested, and the IC50 was 501 to 1000 nM.
In the case of CCOC(=O)c1ccc(N(CC)c2cc3c(cn2)ncn3C)cc1 [Compound 7, 4-[Ethyl-(1-methyl-1H-imidazo[4,5-c]pyridin-6-yl)-amino]-benzoic acid ethyl ester], the IC50 is reported as > 1000 nM.
In the case of CCc1cc(C(=O)NC2CN(S(C)(=O)=O)C2)ccc1N(C)c1cc2c(cn1)ncn2C [Compound 175, 3-Ethyl-4-(methyl(1-methyl-1H-imidazo[4,5-c]pyridin-6-yl)amino)-N-(1-(methylsulfonyl)azetidin-3-yl)benzamide], the IC50 is reported as 501 to 1000 nM.
CCc1cc(CNCC(C)(C)O)ccc1N(C)c1cc2c(cn1)ncn2C [Compound 169, 1-(3-ethyl-4-(methyl(1-methyl-1H-imidazo[4,5-c]pyridin-6-yl)amino)benzylamino)-2-methylpropan-2-ol] gave an IC50 of 0.01 to 100 nM.
Molecule CCc1cc(-c2n[nH]c(C)n2)ccc1N(C)c1cc2c(cn1)ncn2C [Compound 183, N-(2-ethyl-4-(5-methyl-1H-1,2,4-triazol-3-yl)phenyl)-N,1-dimethyl-1H-imidazo[4,5-c]pyridin-6-amine] has an IC50 of 0.01 to 100 nM.
In the case of CCc1ccccc1N(C)c1cc2c(cn1)ncn2C1CC1 [Compound 296, 1-cyclopropyl-N-(2-ethylphenyl)-N-methyl-1H-imidazo[4,5-c]pyridin-6-amine], the IC50 is reported as 501 to 1000 nM.
For CCc1cc(C(=O)NC2COC2)ccc1N(C)c1cc2c(cn1)ncn2C [Compound 171, 3-ethyl-4-(methyl(1-methyl-1H-imidazo[4,5-c]pyridin-6-yl)amino)-N-(oxetan-3-yl)benzamide], the IC50 was 101 to 500 nM.
Work on CCc1ccccc1N(C)c1cc2c(cn1)ncn2CC [Compound 297, 1-ethyl-N-(2-ethylphenyl)-N-methyl-1H-imidazo[4,5-c]pyridin-6-amine] yielded an IC50 of 501 to 1000 nM.
Work on CCc1cc(C(=O)NC2CCCN(C)C2)ccc1N(C)c1cc2c(cn1)ncn2C (stereo not drawn) [Compound 152, 3-ethyl-4-(methyl(1-methyl-1H-imidazo[4,5-c]pyridin-6-yl)amino)-N-(1-methylpiperidin-3-yl)benzamide] yielded an IC50 of 0.01 to 100 nM.
With CCc1cc(C2CCNCC2)ccc1N(C)c1cc2c(cn1)ncn2C [Compound 187, N-(2-Ethyl-4-(piperidin-4-yl)phenyl)-N,1-dimethyl-1H-imidazo[4,5-c]pyridin-6-amine] the IC50 was 0.01 to 100 nM.
Work on CCc1cc(Cn2ccnc2C)ccc1N(C)c1cc2c(cn1)ncn2C [Compound 173, N-(2-Ethyl-4-((2-methyl-1H-imidazol-1-yl)methyl)phenyl)-N,1-dimethyl-1H-imidazo[4,5-c]pyridin-6-amine] yielded an IC50 of 0.01 to 100 nM.
Work on CCc1cc(C2CCN(C(=O)OC(C)(C)C)CC2)ccc1N(C)c1cc2c(cn1)ncn2C [Compound 180, tert-butyl 4-(3-ethyl-4-(methyl(1-methyl-1H-imidazo[4,5-c]pyridin-6-yl)amino)phenyl)piperidine-1-carboxylate] yielded an IC50 of 101 to 500 nM.
CCc1cc(C(=O)NC2CN(C(=O)OC(C)(C)C)C2)ccc1N(C)c1cc2c(cn1)ncn2C [Compound 170, tert-butyl 3-(3-ethyl-4-(methyl(1-methyl-1H-imidazo[4,5-c]pyridin-6-yl)amino)benzamido)azetidine-1-carboxylate] showed an IC50 of 501 to 1000 nM.
With CCc1cc(-c2cnc(N3CCOCC3)nc2)ccc1N(C)c1cc2c(cn1)ncn2C [Compound 184, N-(2-Ethyl-4-(2-morpholinopyrimidin-5-yl)phenyl)-N,1-dimethyl-1H-imidazo[4,5-d]pyridin-6-amine] the IC50 was 101 to 500 nM.
In the case of CN(c1cc2c(cn1)ncn2C)c1ccc(C2CCN(C(=O)OC(C)(C)C)CC2)cc1F [Compound 279, 4-{3-Fluoro-4-[methyl-(1-methyl-M-imidazo[4,5-c]pyridin-6-yl)-amino]-phenyl}-piperidine-1-carboxylic acid tert-butyl ester], the IC50 is reported as > 1000 nM.
Work on CCc1cc(CNC2CCS(=O)(=O)CC2)ccc1N(C)c1cc2c(cn1)ncn2C [Compound 146, {4-[(1,1-Dioxo-hexahydrothiopyran-4-ylamino)-methyl]-2-ethyl-phenyl}-methyl-(1-methyl-1H-imidazo[4,5-c]pyridin-6-yl)-amine] yielded an IC50 of 0.01 to 100 nM.
In the case of CCc1ccccc1N(CCC#N)c1cc2c(cn1)ncn2C [Compound 285, 3-[(2-Ethyl-phenyl)-(1-methyl-1H-imidazo[4,5-c]pyridin-6-yl)-amino]-propionitrile], the IC50 is reported as 101 to 500 nM.
CCc1cc(C(=O)O)ccc1N(C)c1cc2c(cn1)ncn2C [Compound 185, 3-Ethyl-4-(methyl(1-methyl-1H-imidazo[4,5-c]pyridin-6-yl)amino)benzoic acid] was tested, and the IC50 was > 1000 nM.
CCc1cc(-c2cn(C)cn2)ccc1N(C)c1cc2c(cn1)ncn2C [Compound 145, N-(2-ethyl-4-(1-methyl-1H-imidazol-4-yl)phenyl)-N,1-dimethyl-1H-imidazo[4,5-c]pyridin-6-amine] showed an IC50 of 0.01 to 100 nM.
